Data set [1] has as its system solid tumours. Briefly: phase I clinical efficacy (UICC tumour response, markers, FDG-PET). It counts as in vivo, human. The method, then: Preclinical testing confirmed promising antiproliferative activity. […] Physical examination was performed weekly. […] N-Acetyl-SPERMINE SSAT SSAT […] Analysis was descriptive only. […] Patient characteristics are described in Table 1. […] Three patients completed the full six cycles of treatment. Of these, two received the combination 5FU/SAM486A from cycle 3 onwards. Five patients recorded a best response of stable disease. Of these, three received the combination 5FU/SAM486A from cycle 3 onwards (see below).

Data set [2] deals with xenograft or orthotopic tumour. Details: method as in earlier work. The note with it: 5- 25 mg kg-1 day-1 intraperitoneally, ref Regenass et al, 1994, Dorhout et al, 1995, Gutman et al, Manni et al, Delworth et al, 1997, Svensson et al, Mi et al, 1998; cited from earlier work.
On the set-up of data set [3]: method as in data on file. The following applies: rats and dogs; ref data on file; cited from earlier work.

Entries after “also recorded” stand apart in the source; their conditions may differ.

Consider `N=C(N)c1cccc2c1CCC2=NN=C(N)N` [SAM486A], for which, in data set [1] (39 patients), the objective tumour response result is listed as “No objective remission; also recorded: No complete or partial responses” and the “patients with stable disease as best response” value is “five”. In data set [1] (six evaluable patients), the “tumour markers (CEA, CA 15.3) post-baseline” value is recorded as “No trends towards decreases”. Moreover, the “FDG-PET result after first 5-day infusion” value in data set [1] (two patients, 400 mg m-2 cycle-1) is “stable disease at best”. Further, in data set [2], the “effect on tumour growth” value is “inhibited tumour growth”. For the same molecule, in data set [3], the metabolism and excretion entry was “hardly metabolized and predominantly renally excreted”; the “plasma clearance and distribution” value is recorded as “multi-exponential with extensive distribution outside the plasma compartment”.

The record behind these values is publication PMC2363502.
